Results: PMC7881012, “Human ACE2 peptide-mimics block SARS-CoV-2 pulmonary cells infection” (Communications Biology, 2021)
Where two headings read alike, the source gives them in different places. Square brackets hold non-standard residues; d marks the D form. Ends that are not written are not given here. Peptide text beside a SMILES is read from it. hTyr = N[C@@H](CCc1ccc(O)cc1)C(=O)O

Columns and labels:
Solubility (qualitative) = assay type: physicochemical; conditions: qualitative statement
[1] = HPLC retention time (LC-MS method B); assay type: physicochemical; conditions: method B: X-Select CSH C18 XP, 0.1% formic acid water/acetonitrile, 5-100% B in 3.2 min, 1.8 mL min^−1, 40 °C; used as indicator of hydrophobicity
[2] = test system: SARS-CoV-2 clinical isolate SARS-CoV-2/PSL2020 in Calu-3 cells; conditions: clinical isolate /PSL2020 in Calu-3 cells, 48 h
[3] = Helical content by circular dichroism; assay type: physicochemical; conditions: 60 µM peptide, 50 mM sodium phosphate buffer pH 7.4, 25 °C, DichroWeb CDSSTR deconvolution
Description: The conformation of synthesized peptides in aqueous solution was investigated by circular dichroism (CD) spectroscopy. […] The deconvolution of the CD spectra using DichroWeb[25] allowed us to estimate the helical population for each peptide, which is reported in Table 1. Overall, an excellent agreement was observed between the Agadir-computed values and the experimental helical population inferred from CD data. […] The introduction of a proline residue in peptide P5 has a strong destabilizing effect on helical conformation (17%) whereas Leu/hTyr substitution only led to a slight decrease of the helical content (P7 versus P6 and P10 versus P8).
Fig. 2 Far-UV CD spectra of synthesized peptides. […] CD measurements are reported as molar ellipticity per residue.
CD spectra were recorded on a Jasco J-815 CD spectropolarimeter equipped with a Peltier temperature controller. Data were obtained at 25 °C over a wavelength range between 185 nm and 270 nm, using a wavelength interval of 0.2 nm and a scan rate of 20 nm min^−1. Peptide samples were prepared at a concentration of 60 µM in 50 mM sodium phosphate buffer, pH 7.4, in a quartz cell of 1 mm path length. CD experiments were processed and plotted with R program. CD spectra were analyzed using DICHROWEB web server and CDSSTR deconvolution algorithm.

[4] = test system: SARS-CoV-2 clinical isolate SARS-CoV-2/PSL2020 in Vero-E6 cells
Calu-3 cells [5] = test system: Calu-3 cells
Vero-E6 cells [6] = test system: Vero-E6 cells
[7] = molecular target: SARS-CoV-2 spike RBD (Fc-tagged 2019-nCoV RBD-SD1) (Severe acute respiratory syndrome coronavirus 2, UniProt P0DTC2); assay: biochemical; assay type: binding; conditions: for kon: read-out: ka, association constant; for koff: read-out: kdis, dissociation constant
[8] = test system: SARS-CoV-2 clinical isolate SARS-CoV-2/PSL2020 in Calu-3 cells; assay type: cell-based
Vero-E6 cells [9] = conditions: 10 µM
Calu-3 cells [10] = conditions: 10 μM (150 times the IC50); MTT and annexin-V/PI, 24, 48 or 72 h (Fig. 3f)
[11] = clinical isolate /PSL2020 in Vero-E6 cells, 48 h, 10 µM
[12] = BLI EXP1, sample conc. ACE2 10 nM, P8 100 nM, P9 and P10 1000 nM
[13] = BLI EXP2, sample conc. ACE2 100 nM, P8 1000 nM, P9 and P10 1111 nM

CC(C)C[C@H](NC(=O)[C@H](C)NC(=O)[C@H](CC(C)C)NC(=O)[C@H](C)NC(=O)[C@H](CC(C)C)NC(=O)[C@H](CCC(N)=O)NC(=O)[C@H](Cc1ccc(O)cc1)NC(=O)[C@H](CC(C)C)NC(=O)[C@H](CC(C)C)NC(=O)[C@H](CC(=O)O)NC(=O)[C@H](CCC(=O)O)NC(=O)[C@H](CC(C)C)NC(=O)[C@H](CCC(=O)O)NC(=O)[C@H](Cc1c[nH]cn1)NC(=O)[C@H](CC(C)C)NC(=O)[C@H](Cc1ccccc1)NC(=O)[C@H](CCCCN)NC(=O)[C@H](CC(=O)O)NC(=O)[C@H](CC(C)C)NC(=O)[C@H](Cc1ccccc1)NC(=O)[C@@H](NC(=O)[C@H](CCCCN)NC(=O)[C@H](CCc1ccc(O)cc1)NC(=O)[C@H](CCC(N)=O)NC(=O)[C@H](CCC(=O)O)NC(=O)[C@H](CCC(=O)O)NC(=O)[C@H](CC(C)C)NC(=O)[C@H](C)NC(=O)[C@@H](N)CO)[C@@H](C)O)C(N)=O [P7] (H-SALEEQ[hTyr]KTFLDKFLHELEDLLYQLALAL-NH2)
solubility (Solubility (qualitative)): slight increase in solubility
RT, HPLC retention time [1]: 2,57 min
IC50 [2]: > 1000 nM
Experimental helical content% [3]: 63%
% Inhibition of SARSCoV-2 replication at 10 μM ([4]; […], mean of at least three independent experiments): 54%
% Inhibition, Moyenne [4, 11]: 53.7%
% Inhibition, Q2 (Median) [4, 11]: 43.4%

SALEEQLKTFLDKFMHELEDLLYQLAL-NH2 [P8]
solubility (Solubility (qualitative)): highly soluble
RT, HPLC retention time [1]: 2,45 min
Cell death (AnnV+PI) (Calu-3 cells [5]; EXP1, peptide 10 µM, 24 h (0 µM: 16%)): 23%
Cell death (AnnV+PI) (Calu-3 cells [5]; EXP1, peptide 10 µM, 48 h (0 µM: 18%)): 20%
Cell death (AnnV+PI) (Calu-3 cells [5]; EXP1, peptide 10 µM, 72 h (0 µM: 23%)): 18%
Cell death (AnnV+PI) (Calu-3 cells [5]; EXP2, peptide 10 µM, 24 h (0 µM: 13%)): 16%
Cell death (AnnV+PI) (Calu-3 cells [5]; EXP2, peptide 10 µM, 48 h (0 µM: 17%)): 19%
Cell death (AnnV+PI) (Calu-3 cells [5]; EXP2, peptide 10 µM, 72 h (0 µM: 20%)): 22%
Cell death (AnnV+PI) (Calu-3 cells [5]; EXP3, peptide 10 µM, 24 h (Vehicle: 15%)): 23%
Cell death (AnnV+PI) (Calu-3 cells [5]; EXP3, peptide 10 µM, 48 h (Vehicle: 18%)): 20%
Cell death (AnnV+PI) (Calu-3 cells [5]; EXP3, peptide 10 µM, 72 h (Vehicle: 22%)): 18%
Cell viability (MTT) (Vero-E6 cells [6]; 72 h, 0.1 µM): 98%
toxicity in Vero-E6 (Vero-E6 cells [6]; MTT 0.1-10 µM and annexin-V/PI 10 µM, 24, 48 or 72 h (Fig. 3c)): devoid of toxicity
kon [7, 12]: 5610 M⁻¹ s⁻¹
koff [7, 12]: 8.94e-05 s⁻¹
kon [7, 13]: 4310 M⁻¹ s⁻¹
koff [7, 13]: 0.000137 s⁻¹
IC50 [2]: 46 nM
SARSCoV-2 virus titer at 1 μM (PFU mL^−1) on Calu-3 [8]: 0 PFU mL^−1
Experimental helical content% [3]: 70%
Cell death (AnnV+PI) (Vero-E6 cells [9]; 24 h, EXP1, flow cytometry): 3.74%
Cell death (AnnV+PI) (Vero-E6 cells [9]; 24 h, EXP2, flow cytometry): 3.24%
Cell death (AnnV+PI) (Vero-E6 cells [9]; 24 h, EXP3, flow cytometry): 5%
Cell death (AnnV+PI) (Vero-E6 cells [9]; 48 h, EXP1, flow cytometry): 5.63%
Cell death (AnnV+PI) (Vero-E6 cells [9]; 48 h, EXP2, flow cytometry): 4.63%
Cell death (AnnV+PI) (Vero-E6 cells [9]; 48 h, EXP3, flow cytometry): 4.26%
Cell death (AnnV+PI) (Vero-E6 cells [9]; 72 h, EXP1, flow cytometry): 4%
Cell death (AnnV+PI) (Vero-E6 cells [9]; 72 h, EXP2, flow cytometry): 3%
Cell death (AnnV+PI) (Vero-E6 cells [9]; 72 h, EXP3, flow cytometry): 3.48%
cytotoxicity in uninfected Calu-3 cells (Calu-3 cells [10]): no cytotoxicity
